Test results from patent US6706663B2, “Herbicidal 3-heterocyclic substituted benzisothiazole and benzisoxazole compounds” (Wyeth, priority 2000, dated 2004).

Assays:
[1] = system: SAGPY (Sagittaria pygmaea); assay: Flooded paddy, preemergence weed control; assay type: in vivo, L.; conditions: rated 3-4 weeks after treatment, 0-9 rating scale
Summary of the method: (§1)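 Scoring used a 0-9 visual scale relative to control. Before that, seeds or propagules were planted shallowly in silt loam and flooded to 1.5–3 cm, a depth maintained throughout, with greenhouse care during the test.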

[2] = system: IPOHE (Ipomoea hederacea); assay: Postemergence herbicidal evaluation; assay type: in vivo, (L.) Jacq.; conditions: postemergence
Summary of the method: (§2)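 Visual 0–9 injury scores versus control plants, covering stand, vigour, malformation, size, chlorosis and general appearance, taken four to five weeks post-spray and averaged over replicate tests. Plants were sprayed at roughly two weeks old and held on greenhouse benches.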

ORYSAT (Rice, Tebonnet) [3] = assay: Postemergence herbicidal evaluation; assay type: in vivo, Oryza sativa, (L.) Tebonnet; conditions: postemergence
Summary of the method: as §2

[4] = system: CASOB (Cassia obtusifolia); assay: Preemergence herbicidal evaluation; assay type: in vivo, L.; conditions: rated 4-5 weeks after treatment
Summary of the method: (§3)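 Visual 0-9 rating versus untreated control, taken four to five weeks post-treatment, scoring stand, vigor, malformation, size, chlorosis and overall appearance. Compound applied as aqueous acetone spray to freshly seeded soil cups, then kept under standard greenhouse care.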

[5] = system: CHEAL (Chenopodium album); assay: Preemergence herbicidal evaluation; assay type: in vivo, L.; conditions: rated 4-5 weeks after treatment
Summary of the method: as §3

[6] = system: AMBEL (Ambrosia artemisifolia); assay: Preemergence herbicidal evaluation; assay type: in vivo, L.; conditions: rated 4-5 weeks after treatment
Summary of the method: as §3

[7] = system: ABUTH (Abutilon theophrasti); assay: Postemergence herbicidal evaluation; assay type: in vivo, Medic.; conditions: postemergence
Summary of the method: as §2

[8] = system: TRZAWR (Wheat, Winter, cv Riband); assay: Preemergence herbicidal evaluation; assay type: in vivo, Triticum aestivum; conditions: rated 4-5 weeks after treatment
Summary of the method: as §3

[9] = system: CASOB (Cassia obtusifolia); assay: Postemergence herbicidal evaluation; assay type: in vivo, L.; conditions: postemergence
Summary of the method: as §2

[10] = system: CHEAL (Chenopodium album); assay: Postemergence herbicidal evaluation; assay type: in vivo, L.; conditions: postemergence
Summary of the method: as §2

[11] = system: AMBEL (Ambrosia artemisifolia); assay: Postemergence herbicidal evaluation; assay type: in vivo, L.; conditions: postemergence
Summary of the method: as §2

[12] = system: ECHCG (Echinochloa crus-galli); assay: Postemergence herbicidal evaluation; assay type: in vivo, (L.) Beau; conditions: postemergence
Summary of the method: as §2

ORYSAT (Rice, Tebonnet) [13] = assay: Flooded paddy, post-transplant rice tolerance; assay type: in vivo, Oryza sativa, (L.) Tebonnet; conditions: flooded paddy, post-transplant rice, rated 3-4 weeks after treatment, 0-9 rating scale
Summary of the method: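 Seedlings aged ten days are transplanted in pairs into undrained pots of silt loam, which are then flooded to a depth of 1.5 to 3 cm. After herbicide application the pots are kept in a greenhouse with the flood maintained. Plants are rated 0-9 by visual comparison with controls.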

ZEAMX (Corn, Field) = assay: Postemergence herbicidal evaluation; assay type: in vivo, Zea mays, L.; conditions: postemergence
Summary of the method: as §2

[14] = system: ABUTH (Abutilon theophrasti); assay: Preemergence herbicidal evaluation; assay type: in vivo, Medic.; conditions: rated 4-5 weeks after treatment
[15] = system: ECHORC (Echinochloa oryzoides); assay: Flooded paddy, preemergence weed control; assay type: in vivo, Echinochloa oryzoides (Ard.) Fritsch.; conditions: rated 3-4 weeks after treatment, 0-9 rating scale
Summary of the method: as §1

[16] = system: TRZAWR (Wheat, Winter, cv Riband); assay: Postemergence herbicidal evaluation; assay type: in vivo, Triticum aestivum; conditions: postemergence
Summary of the method: as §2

ORYSAT (Rice, Tebonnet) [17] = assay: Preemergence herbicidal evaluation; assay type: in vivo, Oryza sativa, (L.) Tebonnet; conditions: rated 4-5 weeks after treatment

Compound: C=C1COC(c2nsc3ccc(-n4c(=O)cc(C(F)(F)F)n(C)c4=O)cc23)OC1 [Compound 58, 2,4(1H,3H)-pyrimidinedione, 1-methyl-3-[3-(5-methylene-m-dioxan-2-yl)-1,2-benzisothiazol-5-yl]-6-(trifluoromethyl)-]
- herbicidal rating, SAGPY ([1]; rate 0.0320 kg/ha): 2.0
- herbicidal rating, SAGPY ([1]; rate 0.1250 kg/ha): 5.0
- IPOHE herbicidal rating ([2]; rate 0.0320 kg/ha): 9.0
- IPOHE herbicidal rating ([2]; rate 0.0620 kg/ha): 9.0
- ORYSAT herbicidal rating (ORYSAT (Rice, Tebonnet) [3]; rate 0.0320 kg/ha): 3.5
- ORYSAT herbicidal rating (ORYSAT (Rice, Tebonnet) [3]; rate 0.0620 kg/ha): 5.0
- Preemergence herbicidal rating CASOB ([4]; Rate 0.0620 kg/ha): 5.5
- Preemergence herbicidal rating CASOB ([4]; Rate 0.1250 kg/ha): 6.5
- Preemergence herbicidal rating CASOB ([4]; Rate 0.2500 kg/ha): 9.0
- Preemergence herbicidal rating CHEAL ([5]; Rate 0.0620 kg/ha): 9.0
- Preemergence herbicidal rating CHEAL ([5]; Rate 0.1250 kg/ha): 9.0
- Preemergence herbicidal rating CHEAL ([5]; Rate 0.2500 kg/ha): 9.0
- Preemergence herbicidal rating AMBEL ([6]; Rate 0.0620 kg/ha): 9.0
- Preemergence herbicidal rating AMBEL ([6]; Rate 0.1250 kg/ha): 9.0
- Preemergence herbicidal rating AMBEL ([6]; Rate 0.2500 kg/ha): 9.0
- ABUTH herbicidal rating ([7]; rate 0.0320 kg/ha): 9.0
- ABUTH herbicidal rating ([7]; rate 0.0620 kg/ha): 9.0
- Preemergence herbicidal rating TRZAWR ([8]; Rate 0.0620 kg/ha): 7.0
- Preemergence herbicidal rating TRZAWR ([8]; Rate 0.1250 kg/ha): 8.0
- Preemergence herbicidal rating TRZAWR ([8]; Rate 0.2500 kg/ha): 8.0
- CASOB herbicidal rating ([9]; rate 0.0320 kg/ha): 1.0
- CASOB herbicidal rating ([9]; rate 0.0620 kg/ha): 8.0
- CHEAL herbicidal rating ([10]; rate 0.0320 kg/ha): 3.0
- CHEAL herbicidal rating ([10]; rate 0.0620 kg/ha): 5.0
- AMBEL herbicidal rating ([11]; rate 0.0320 kg/ha): 9.0
- AMBEL herbicidal rating ([11]; rate 0.0620 kg/ha): 9.0
- ECHCG herbicidal rating ([12]; rate 0.0320 kg/ha): 1.0
- ECHCG herbicidal rating ([12]; rate 0.0620 kg/ha): 3.0
- herbicidal rating, ORYSAT (rice tolerance) (ORYSAT (Rice, Tebonnet) [13]; rate 0.0320 kg/ha): 4.0
- herbicidal rating, ORYSAT (rice tolerance) (ORYSAT (Rice, Tebonnet) [13]; rate 0.1250 kg/ha): 7.0
- ZEAMX herbicidal rating (ZEAMX (Corn, Field); rate 0.0320 kg/ha): 5.5
- ZEAMX herbicidal rating (ZEAMX (Corn, Field); rate 0.0620 kg/ha): 5.5
- Preemergence herbicidal rating ABUTH ([14]; Rate 0.0620 kg/ha): 9.0
- Preemergence herbicidal rating ABUTH ([14]; Rate 0.1250 kg/ha): 9.0
- Preemergence herbicidal rating ABUTH ([14]; Rate 0.2500 kg/ha): 9.0
- herbicidal rating, ECHORC ([15]; rate 0.0320 kg/ha): 6.0
- herbicidal rating, ECHORC ([15]; rate 0.1250 kg/ha): 9.0
- TRZAWR herbicidal rating ([16]; rate 0.0320 kg/ha): 4.0
- TRZAWR herbicidal rating ([16]; rate 0.0620 kg/ha): 4.5
- Preemergence herbicidal rating ORYSAT (ORYSAT (Rice, Tebonnet) [17]; Rate 0.0620 kg/ha): 8.5
- Preemergence herbicidal rating ORYSAT (ORYSAT (Rice, Tebonnet) [17]; Rate 0.1250 kg/ha): 9.0
- Preemergence herbicidal rating ORYSAT (ORYSAT (Rice, Tebonnet) [17]; Rate 0.2500 kg/ha): 9.0

Compound: Cc1cnn(-c2nsc3ccc(-n4c(=O)cc(C(F)(F)F)n(C)c4=O)cc23)c1 [Compound 59, 1-methyl-3-[3-(4-methylpyrazol-1-yl)-1,2-benzisothiazol-5-yl]-6-(trifluoromethyl)uracil]
- herbicidal rating, SAGPY ([1]; rate 0.0080 kg/ha): 0.0
- herbicidal rating, SAGPY ([1]; rate 0.0320 kg/ha): 0.0
- herbicidal rating, SAGPY ([1]; rate 0.1250 kg/ha): 0.0
- IPOHE herbicidal rating ([2]; rate 0.0320 kg/ha): 8.0
- IPOHE herbicidal rating ([2]; rate 0.0620 kg/ha): 8.0
- IPOHE herbicidal rating ([2]; rate 0.1250 kg/ha): 9.0
- ORYSAT herbicidal rating (ORYSAT (Rice, Tebonnet) [3]; rate 0.0320 kg/ha): 2.0
- ORYSAT herbicidal rating (ORYSAT (Rice, Tebonnet) [3]; rate 0.0620 kg/ha): 2.5
- ORYSAT herbicidal rating (ORYSAT (Rice, Tebonnet) [3]; rate 0.1250 kg/ha): 2.5
- Preemergence herbicidal rating CASOB ([4]; Rate 0.0620 kg/ha): 0.0
- Preemergence herbicidal rating CASOB ([4]; Rate 0.1250 kg/ha): 0.0
- Preemergence herbicidal rating CASOB ([4]; Rate 0.2500 kg/ha): 0.0
- Preemergence herbicidal rating CHEAL ([5]; Rate 0.0620 kg/ha): 9.0
- Preemergence herbicidal rating CHEAL ([5]; Rate 0.1250 kg/ha): 9.0
- Preemergence herbicidal rating CHEAL ([5]; Rate 0.2500 kg/ha): 9.0
- Preemergence herbicidal rating AMBEL ([6]; Rate 0.0620 kg/ha): 0.0
- Preemergence herbicidal rating AMBEL ([6]; Rate 0.1250 kg/ha): 5.0
- Preemergence herbicidal rating AMBEL ([6]; Rate 0.2500 kg/ha): 6.0
- ABUTH herbicidal rating ([7]; rate 0.0320 kg/ha): 9.0
- ABUTH herbicidal rating ([7]; rate 0.0620 kg/ha): 9.0
- ABUTH herbicidal rating ([7]; rate 0.1250 kg/ha): 9.0
- Preemergence herbicidal rating TRZAWR ([8]; Rate 0.0620 kg/ha): 1.0
- Preemergence herbicidal rating TRZAWR ([8]; Rate 0.1250 kg/ha): 2.0
- Preemergence herbicidal rating TRZAWR ([8]; Rate 0.2500 kg/ha): 2.0
- CASOB herbicidal rating ([9]; rate 0.0320 kg/ha): 0.0
- CASOB herbicidal rating ([9]; rate 0.0620 kg/ha): 3.0
- CASOB herbicidal rating ([9]; rate 0.1250 kg/ha): 3.0
- CHEAL herbicidal rating ([10]; rate 0.0320 kg/ha): 8.0
- CHEAL herbicidal rating ([10]; rate 0.0620 kg/ha): 9.0
- CHEAL herbicidal rating ([10]; rate 0.1250 kg/ha): 9.0
- AMBEL herbicidal rating ([11]; rate 0.0320 kg/ha): 9.0
- AMBEL herbicidal rating ([11]; rate 0.0620 kg/ha): 9.0
- AMBEL herbicidal rating ([11]; rate 0.1250 kg/ha): 9.0
- ECHCG herbicidal rating ([12]; rate 0.0320 kg/ha): 0.0
- ECHCG herbicidal rating ([12]; rate 0.0620 kg/ha): 0.0
- ECHCG herbicidal rating ([12]; rate 0.1250 kg/ha): 3.0
- herbicidal rating, ORYSAT (rice tolerance) (ORYSAT (Rice, Tebonnet) [13]; rate 0.0080 kg/ha): 0.0
- herbicidal rating, ORYSAT (rice tolerance) (ORYSAT (Rice, Tebonnet) [13]; rate 0.0320 kg/ha): 0.0
- herbicidal rating, ORYSAT (rice tolerance) (ORYSAT (Rice, Tebonnet) [13]; rate 0.1250 kg/ha): 0.0
- ZEAMX herbicidal rating (ZEAMX (Corn, Field); rate 0.0320 kg/ha): 5.5
- ZEAMX herbicidal rating (ZEAMX (Corn, Field); rate 0.0620 kg/ha): 6.5
- ZEAMX herbicidal rating (ZEAMX (Corn, Field); rate 0.1250 kg/ha): 7.0
- Preemergence herbicidal rating ABUTH ([14]; Rate 0.0620 kg/ha): 0.0
- Preemergence herbicidal rating ABUTH ([14]; Rate 0.1250 kg/ha): 9.0
- Preemergence herbicidal rating ABUTH ([14]; Rate 0.2500 kg/ha): 7.0
- herbicidal rating, ECHORC ([15]; rate 0.0080 kg/ha): 0.0
- herbicidal rating, ECHORC ([15]; rate 0.0320 kg/ha): 0.0
- herbicidal rating, ECHORC ([15]; rate 0.1250 kg/ha): 3.0
- TRZAWR herbicidal rating ([16]; rate 0.0320 kg/ha): 3.0
- TRZAWR herbicidal rating ([16]; rate 0.0620 kg/ha): 3.5
- TRZAWR herbicidal rating ([16]; rate 0.1250 kg/ha): 4.0
- Preemergence herbicidal rating ORYSAT (ORYSAT (Rice, Tebonnet) [17]; Rate 0.0620 kg/ha): 1.0
- Preemergence herbicidal rating ORYSAT (ORYSAT (Rice, Tebonnet) [17]; Rate 0.1250 kg/ha): 2.0
- Preemergence herbicidal rating ORYSAT (ORYSAT (Rice, Tebonnet) [17]; Rate 0.2500 kg/ha): 2.0
